# Test results from patent US10280404B2, “Optimized HCV full-length infectious cell culture systems and applications thereof” (Hvidore Hospital, priority 2014, dated 2019).
# “Also recorded” adds a separate entry of the source.
# Legend:
# [1] = tested on: Huh7.5 cells; test: HCV infectivity titers (FFU assay) of culture supernatant after RNA transfection or viral passage; format: cell-based, human
# Method: Transfection and infection of Huh7.5 cells. The human hepatoma cell line Huh7.5 was maintained as described. Cells were plated in 6-well plates (˜3.5×10^5 cells/well) ˜24 hours before RNA transfection or viral infection, reaching 80-90% confluence at the time of inoculation. RNA transfection and viral infection were performed as previously described. The transfected or infected cultures were incubated for ˜16 hours, and sub-cultured every 2-3 days; culture supernatant was collected, filtered (0.45 μm), and stored at […] until analysis.
# Analysis of HCV in cultured cells. […] Percentage of HCV antigen positive cells in the culture was determined with fluorescence microscopy. Culture supernatants were collected when 80% of cells were HCV antigen positive (peak infection) and HCV infectivity titers were determined by an FFU assay using a combination of C7-50 and 9E10, as previously described. […] The number of FFU was automatically counted with an ImmunoSpot Series 5 UV Analyzer with customized software (CTL Europe GmbH). HCV RNA titers in the culture supernatant were determined using real time RT-PCR TaqMan method. Core antigen levels were determined by the Architect HCV Ag detection system (Abbott) following manufacturer's instructions. Whole ORF sequences of passaged viruses were determined using procedures previously described for the sequencing of H77C and JFH1 genomes.
# [2] = tested on: CD81-deficient S29 cells; test: Single-cycle production assay: intra- and extracellular infectivity titers and core levels; format: cell-based, human; conditions: 48 hours after transfection
# Method: Determination of intra- and extra-cellular HCV core levels and infectivity titers. For single-cycle production assays, an Huh7-derived CD-81 deficient cell line S29 was transfected with HCV RNA and intracellular HCV core levels were measured 4 and 48 hours post transfection. Additionally, intra- and extra-cellular HCV infectivity titers, as well as extracellular HCV core concentration, were determined 48 hours post transfection, as described previously. Briefly, for this assay, S29 cells were seeded in 6 well plates (˜3.5×10^5 cells/well) 24 hours prior to transfection. Plasmids of the different full-length clones were digested with XbaI (New England Biolabs, NEB) for linearization and treated with Mung Bean nuclease (NEB). HCV RNA was generated by in vitro transcription using T7 RNA polymerase (Promega). […] RNA was quantified using spectrophotometry (NanoDrop) and 10 μg of RNA was used for transfection with Lipofectamine 2000 (Invitrogen). […] Both, intra- and extra-cellular core antigen levels were determined by the Architect HCV Ag detection system (Abbott) following the manufacturer's instructions. […] Specific dilutions were analyzed in triplicate for HCV infectivity titers, and the FFU was counted using an ImmunoSpot Series 5 UV Analyzer with customized software (CTL Europe GmbH), and confirmed by manual count. […]
substance,measurement,setting,value
HCV1_LSGF/S399F/TNm/4m: full-length HCV-1 recombinant with LSGF/S399F/TNm plus A970T/I1312V/C2419R/A2919T,day at which HCV infectivity titers were first detectable,"[1]; after transfection of Huh7.5 cells, detection limit 10^2.4 FFU/ml",4 days
same,infectivity titers compared with HCV1cc,[1]; transfected Huh7.5 cells,slightly lower than those of HCV1cc; also recorded: close to those of HCV1cc
same,extracellular infectivity titers,[2],comparable to those of HCV1cc
